{
  "source": "the pKa sets of Baltruschat and Czodrowski (2020)",
  "note": "Several values for one entry are separate records, joined by “and”; a condition that tells them apart may be missing. Equal entries are not always repeated.",
  "data": [
    {"settings": "acidic group", "values": [
      {"compound": "[NH3+]C(c1cccc(O)c1O)P(=O)([O-])O", "note": "(stereo not drawn)", "pKa": 5.06},
      {"compound": "O=[PH](O)C([NH2+]Cc1cc[nH+]cc1)c1ccccc1O", "note": "(stereo not drawn)", "pKa": 2.35},
      {"compound": "O=C(O)c1cccc2ccc[nH+]c12", "pKa": 1.9},
      {"compound": "CC(C)C(=O)CC=O", "pKa": 6.68},
      {"compound": "C=C[C@@H]1CNC(=S)O1", "pKa": 10.2},
      {"compound": "C[N+](C)(C)Cc1ccc(O)cc1", "pKa": 8.75},
      {"compound": "O=C(c1ccccc1)N(O)c1ccccc1", "pKa": 7.87},
      {"compound": "CC1(C)[C@@H]2CC[C@]1(C)C(=O)C2C(=O)O", "note": "(stereo partly drawn)", "pKa": 3.76},
      {"compound": "[S-]c1ncnc2nc[nH]c12", "pKa": 10.9},
      {"compound": "CCCc1nnn[nH]1", "pKa": 5.61},
      {"compound": "C[NH2+]CCS", "pKa": 8.02},
      {"compound": "Cn1cccc1C(=O)O", "pKa": 4.51},
      {"compound": "O/N=C1/CCCC(=N\\O)/C1=N/O", "pKa": "8.21 and 8.12"},
      {"compound": "O=C(O)CSc1ccc(S)cc1", "pKa": 3.77},
      {"compound": "Cc1ncnc2c(O)cccc12", "pKa": 8.75},
      {"compound": "COc1cc(OC)nc([N-]S(=O)(=O)c2ccc(O)cc2)n1", "pKa": 9.05},
      {"compound": "[O-]c1ccccc1O", "pKa": 11.6},
      {"compound": "CCC[NH2+]CC(=O)O", "pKa": 2.31},
      {"compound": "O=C(O)CCCc1c[nH]c2ccccc12", "pKa": 4.82},
      {"compound": "O=C(O)C(=O)/C=C/c1ccccc1", "pKa": 1.97},
      {"compound": "CNc1nc(SC)nc2[nH]ncc12", "pKa": 11.4},
      {"compound": "CC(=O)N1CSC[C@H]1C(=O)O", "pKa": 2.94},
      {"compound": "O=C(O)[C@@H]1O[C@H](Oc2ccc3ccc[nH+]c3c2)[C@@H](O)[C@H](O)[C@H]1O", "pKa": 3},
      {"compound": "O/N=C/c1ccc(Cl)cc1", "pKa": 10.5},
      {"compound": "S=C(Nc1ccccc1)c1cccc(Br)c1", "pKa": 10.5},
      {"compound": "CC(C)(O)C(C(=O)O)c1ccc(C2CCCCC2)cc1", "note": "(stereo not drawn)", "pKa": 3.76},
      {"compound": "COc1cc(S(C)=O)ccc1-c1nc2cnncc2[nH]1", "note": "(stereo not drawn)", "pKa": 8.49},
      {"compound": "COc1ccccc(=O)c1O", "pKa": 8},
      {"compound": "CC(C)(C)OOCC(=O)O", "pKa": 3.49},
      {"compound": "O=C(O)c1cccc(=O)cc1", "pKa": 3.2},
      {"compound": "Oc1cc(-c2ccccc2)n[nH]1", "pKa": 11.4},
      {"compound": "O=C([O-])CCc1nc2ccccc2[nH]1", "pKa": 13.1},
      {"compound": "C[n+]1ccc2c(O)cccc2c1", "pKa": 6.9},
      {"compound": "O=S(=O)(Nc1ccccc1)c1ccc(Cl)cc1", "pKa": 7.98},
      {"compound": "[NH3+]C(Cc1ccccc1)C(=O)O", "note": "(stereo not drawn)", "pKa": 2.3},
      {"compound": "C[n+]1cc(O)ccn1", "pKa": 1.74},
      {"compound": "N#CC(C#N)C(C#N)C#N", "pKa": 3.6},
      {"compound": "NCC(N)=O", "pKa": 8.05},
      {"compound": "CC(C)(C)CCCC(=O)O", "pKa": 4.88},
      {"compound": "CCOC(=O)COc1ccc(C(=O)c2ccc(O)c(C[NH3+])c2)c(Cl)c1Cl", "pKa": 6.38},
      {"compound": "CCN(CC)C(=S)NC(=O)c1ccc(C)cc1", "pKa": 8.77},
      {"compound": "COc1ncc2[nH]cnc2n1", "pKa": 9.2},
      {"compound": "COC(=O)C[C@@H]1[C@@H](C(=O)O)[NH2+]C[C@H]1C(C)O", "note": "(stereo partly drawn)", "pKa": 2.4},
      {"compound": "Cc1ccc(C(=O)c2ccccc2C(=O)O)cc1", "pKa": 3.64},
      {"compound": "CC1(C)[C@@H]2CC[C@](C(=O)O)(C2)[C@@H]1O", "pKa": 4.83},
      {"compound": "O=Cc1ncccc1O", "pKa": 6.95},
      {"compound": "O=[N+]([O-])c1ccc2c(O)cccc2c1", "pKa": 8.49},
      {"compound": "CC1CCC(O)(C(C(=O)O)c2ccc(-c3ccccc3)cc2)CC1", "note": "(stereo not drawn)", "pKa": 3.45},
      {"compound": "Nc1[nH+]c2nc[nH]c2c(N)[n+]1O", "pKa": 1},
      {"compound": "N#Cc1cccc(-c2nnn[nH]2)c1", "pKa": 3.45},
      {"compound": "[NH3+]C(Cc1ccccc1)c1nnn[nH]1", "note": "(stereo not drawn)", "pKa": 1.93},
      {"compound": "O=C1CCC(C2CCCCC2)C(=O)C1", "note": "(stereo not drawn)", "pKa": 5.5},
      {"compound": "OCC(S)CS", "note": "(stereo not drawn)", "pKa": 8.62},
      {"compound": "CC(=O)CCC(=O)O", "pKa": 4.63},
      {"compound": "Nc1nc2c(ncn2[C@@H]2C=C[C@H](CO)C2)c(O)[nH+]1", "pKa": 3.15},
      {"compound": "Oc1nccc[nH+]1", "pKa": 2.24},
      {"compound": "Cn1cnc2nc([O-])[nH]c(=S)c21", "pKa": 12.1}
    ]},
    {"settings": "basic group", "values": [
      {"compound": "[O-]c1ccncn1", "pKa": 8.59},
      {"compound": "Nc1ccc2[nH]c[nH+]c2c1", "pKa": 3.07},
      {"compound": "CC(C)CNCC(C)C", "pKa": 10.6},
      {"compound": "N#Cc1ccc(CN)cc1", "pKa": 8.72},
      {"compound": "[S-]CCNCCc1ccccc1", "pKa": 10.3},
      {"compound": "N[C@@H]1C[C@@H]2CCCC[C@H]2C[C@@H]1N", "pKa": 9.93}
    ]}
  ]
}
